From patent US20070253913A1, “Aerosol formulations for delivery of dihydroergotamine to the systemic circulation via pulmonary inhalation” (priority 2003, published 2007)
Where “and” joins values, the source holds several entries; their conditions need not be identical. Equal values may be shown once. Where a name gives a salt, the structure may show the parent alone. Read-outs that look alike come from different tables or passages of the source.

How the values were obtained:
[1] = Powder stability with accelerated environmental aging, HPLC assay; assay type: physicochemical
Description: (§1) DHE particle were produced by the SEDS super critical fluid process as described by Palakadoty et al. (US Application 20030109421). The DHE particulate powder produced was assayed by HPLC to determine purity and the mass mean aerodynamic diameter was determined using an Aerosizer instrument under standard operating conditions known in the art. […] The DHE particulate powder was subject to standard accelerated aging conditions of: (i) 3 months at 40 degrees Celsius and 75% relative humidity; and (ii) 25 degrees Celsius and 60% relative humidity. The DHE particles were placed in a tightly sealed dark glass container and placed in the appropriate incubation ovens for the 3 month period. At the end of the three month period, purity and particle size were again assessed as discussed above.

[2] = Pharmacokinetics of DHE in dog serum after DPI inhalation vs intravenous bolus; assay type: in vivo, dogs; conditions: for Tmax: dog serum, inhalation 1 mg DPI
Description: In this study, dogs were administered the DHE particles via the DPI format (total dose 1 mg) and by intravenous bolus (total dose 0.5 mg) and DHE levels were measured in dog serum at defined intervals.

[3] = cited from earlier work
[4] = Powder stability with accelerated environmental aging, particle size by Aerosizer; assay type: physicochemical; conditions: MMAD
Description: as §1

Row | SMILES | HPLC Assay (%) ([1]; 3 Months @ 25 C./60% RH, sealed dark glass container) | HPLC Assay (%) ([1]; 3 Months @ 40 C./75% RH, sealed dark glass container) | HPLC Assay (%) ([1]; Initial, on production) | Tmax ([2]; individual dogs) [min] | blood levels of DHE compared to intravenous delivery ([2]; dog, DPI 1 mg vs iv bolus 0.5 mg, FIG. 1) | time to measurable levels of DHE in the blood after inhalation ([2]; dog, DPI 1 mg, FIG. 1) [s] | bioavailability ([2]; dog, in vivo, dog, inhalation 1.0 mg vs iv bolus 0.5 mg, n=3, read-out: F (bioavailability) Average (%)) [%] | Tmax ([2]; dog, in vivo, inhaled or intranasal, 1 mg, individual dogs, read-out: Tmax (converted)) [min] | Tmax ([2]; dog, in vivo, inhaled or intranasal, 1 mg, n=3, read-out: Tmax Average (converted)) [min] | F (bioavailability) (%) ([2]; dog, inhalation 1.0 mg vs iv bolus 0.5 mg, individual dogs) | bioavailability, administered dose reaching the systemic circulation ([3]; in vivo) | Particle Size (microns by Aerosizer) ([4]; 3 Months @ 25 C./60% RH) [microns] | Particle Size (microns by Aerosizer) ([4]; 3 Months @ 40 C./75% RH) [microns] | Particle Size (microns by Aerosizer) ([4]; Initial, on production) [microns] | bioavailability ([3]; pulmonary delivery)
1 | CN1C[C@H](C(=O)N[C@]2(C)O[C@@]3(O)[C@@H]4CCCN4C(=O)[C@H](Cc4ccccc4)N3C2=O)C[C@@H]2c3cccc4[nH]cc(c34)C[C@H]21 [DHE, dihydroergotamine] | 101.0 | 102.0 | 98.3 | 10 | maintained at higher levels over an extended period of time | ≤ 30 | 52 | 5 | 6.7 | 27% and 49% and 80% | 2-10% | 1.044 | 1.091 | 1.131 | 
2 | CN1C[C@H](C(=O)N[C@]2(C)O[C@@]3(O)[C@@H]4CCCN4C(=O)[C@H](Cc4ccccc4)N3C2=O)C=C2c3cccc4[nH]cc(c34)C[C@H]21 [ergotamine tartrate] |  |  |  |  |  |  |  |  |  |  |  |  |  |  | up to 92%
